Results taken from patent US11261189B2, “Substituted 2,4 diamino-quinoline as new medicament for fibrosis, autophagy and cathepsins B (CTSB), L (CTSL) and D (CTSD) related diseases” (Genoscience Pharma, priority 2018, dated 2022).
Structures can show the parent of a compound that is named as a salt.

Test system: cathepsins B and L (CTSB/L)
Assay: Overall cathepsins B and L (CTSB/L) peptidase activity in lysates of treated HepG2 cells (Z-FR-AMC substrate)
Type: cell-based
Conditions: for CTSB/L activity versus NT: 6 hours of treatment
Experimental: Lysosomal functions was investigated in a hepatocellular carcinoma (HCC) cell line HepG2 after 6 hours and 24 hours of treatment with compound 2-3 (the hydrochloride salt form of compound 2-2) using functional assays of some lysosomal enzymes activity: two cysteine proteinases: cathepsin B (CTSB) and cathepsin L (CTSL), and one aspartic proteinase: cathepsin D (CTSD). Two sets of three concentrations of compound 2-3 (1 μM, 2 μM, and 4 μM for 6 hours, and 0.5 μM, 1 μM and 2 μM for 24 hours) were tested at least in triplicate and four independent experiments were performed. Salinomycin (7.5 μM for 6 hours and 24 hours) was used as a positive control.
The HepG2 cell line was maintained in DMEM (Dulbecco's Modified Eagle Media) high glucose (Cat #L0103-500, Dutscher) containing 1% penicillin-streptomycin (Cat #P06-07100, Dutscher) and 10% FBS (Fetal Bovine Serum) (Cat #11543407, Life Technologies). Cells were cultured at 37° C. with 5% CO2.
The day before the experiment, 6-well plates (Cat #353046, Dutscher) with 250,000 cells in 2.7 mL of medium per well were prepared.
Compound 2-3 was dissolved with filtrated H2O mQ to make a 10 mM stock solution and serial working solutions (10× solutions) were prepared with the diluent (=culture medium with 0.4% H2O mQ) at 5 μM, 10 μM, 20 μM and 40 μM: the “dilution 1” is made from the 10 mM stock solution in the culture medium and the following serial dilutions were made in the diluent to maintain a constant percentage of H2O.
Salinomycin [CAS 53003-10-4] was used as positive control and was dissolved with methanol to make a 10 mM stock solution and a 10× solution at 75 μM was prepared with the culture medium.
300 μL of compound 2-3 10× solutions (solutions at 10 μM, 20 μM and 40 μM for 6 hours of treatment and solutions at 5 μM, 10 μM and 20 μM for 24 hours of treatment) or 300 μL of diluent (=non-treated (NT) condition) or 300 μL of Salinomycin 10× solution were dispensed in the appropriate wells (4 wells/condition). After cells treatment, 6-well plates were returned to incubator for 6 hours or 24 hours.
After 6 hours or 24 hours of cells treatment, the medium was removed from each well. The cells were carefully rinsed with PBS (phosphate-buffered saline, Cat #L0615-500, Dutscher) and detached with 500 μL per well of a trypsin solution. After 5 min of trypsin (Cat #L0930-100, Dutscher) incubation at 37° C., 800 μL of medium was added per well and transferred to a 1.5 mL tube. Then, 800 μL of PBS was used to rinse each well and the corresponding solution was pooled in each corresponding 1.5 mL tube. […] Total protein concentration was assessed using the Bradford reagent (Cat #B6916-500ML, Sigma-Aldrich) and cellular lysates were stored at −80° C. until catalytic activity measurement. […]

CC(C)(C)NC1CCN(c2cc(NCc3ccc(Cl)cc3)nc3ccccc23)CC1 [2-3, 2-(4-chlorobenzylamino)-4-(4-tert-butylaminopiperidin-1-yl)-quinoline Hydrochloride Salt]
CTSB/L activity versus NT (HepG2, 2 μM): 78.0%
CTSB/L activity versus NT (HepG2, 4 μM): 55.3%
inhibition of cathepsins B and L (CTSB/L) compare to the control (HepG2, 2 μM, 4 μM for 6 hours and 1 μM, 2 μM for 24 hours, p<0.05): statistically significant
